Assays:
Drosophila Aurora A = Drosophila Aurora A (Drosophila melanogaster, UniProt Q9VGF9); test: Aurora A kinase assay (Drosophila enzyme); assay type: biochemical; settings: Table 3, values marked *: Drosophila Aurora A; read-out: Kinase inhibition Aurora A (*Drosophila Aurora A)
Description: The compounds from the examples above were investigated for their ability to inhibit the enzymatic activity of various protein kinases. This was achieved by measurement of incorporation of radioactive phosphate from ATP into appropriate polypeptide substrates. Recombinant protein kinases and kinase complexes were produced or obtained commercially. Assays were performed using 96-well plates and appropriate assay buffers (typically 25 mM β-glycerophosphate, 20 mM MOPS, 5 mM EGTA, 1 mM DTT, 1 mM […], pH 7.4), into which were added 2-4 μg of active enzyme with appropriate substrates. The reactions were initiated by addition of Mg/ATP mix (15 mM MgCl2+100 μM ATP with 30-50 kBq per well of [γ-^32P]-ATP) and mixtures incubated as required at 30° C. Reactions were stopped on ice, followed by filtration through p81 filterplates or GF/C filterplates (Whatman Polyfiltronics, Kent, UK). After washing 3 times with 75 mM aq orthophosphoric acid, plates were dried, scintillant added and incorporated radioactivity measured in a scintillation counter (TopCount, Packard Instruments, Pangbourne, Berks, UK). Compounds for kinase assay were made up as 10 mM stocks in DMSO and diluted into 10% DMSO in assay buffer. Data was analysed using curve-fitting software (GraphPad Prism version 3.00 for Windows, GraphPad Software, San Diego Calif. USA) to determine IC50 values (concentration of test compound which inhibits kinase activity by 50%).

GSK-3β = GSK-3β (Oryctolagus cuniculus, UniProt G1T8E2); test: GSK-3β kinase assay; assay type: biochemical, rabbit; settings: Table 2; read-out: Kinase inhibition IC50 GSK3
Description: GSK-3 was obtained from New England Biolabs (UK) Ltd., Hitchin, Herts. The recombinant enzyme was isolated from a strain of E. coli that carries a clone expressing GSK-3β derived from a rabbit skeletal muscle cDNA library [Wang, Q. M.; Fiol, C. J.; DePaoli-Roach, A. A.; Roach, P. J. J. Biol. Chem., 1994, 269, 14566]. Inhibition of GSK-3 function was assessed by measurement of phosphorylation of CREB phosphopeptide KRREILSRRPphosphoSYR in the presence of test compounds. Using a 96-well assay format, GSK3 (7.5 U) was incubated for 30 min at 30° C. in a total volume of 25 μL in 20 mM MOPS pH 7.2, 25 mM β-glycerophosphate, 5 mM EGTA, 1 mM DTT, 1 mM […], 40 μM CREB peptide, 15 mM MgCl2 and 100 μM ATP (containing 0.25 μCi [γ-^32P]-ATP) in the presence of varying concentrations of test compound. The samples were transferred to 96-well p81 filter plates (Whatman Polyfiltronics, Kent, UK), and the plates were washed 4 times with 200 μL/well of 75 mM aq orthophosphoric acid. Scintillation liquid (50 μL) was added to each well, and incorporated radioactivity for each sample was determined using a scintillation counter (TopCount, Packard Instruments, Pangbourne, Berks, UK).

GSK-3β, sequence (G1T8E2 1-432): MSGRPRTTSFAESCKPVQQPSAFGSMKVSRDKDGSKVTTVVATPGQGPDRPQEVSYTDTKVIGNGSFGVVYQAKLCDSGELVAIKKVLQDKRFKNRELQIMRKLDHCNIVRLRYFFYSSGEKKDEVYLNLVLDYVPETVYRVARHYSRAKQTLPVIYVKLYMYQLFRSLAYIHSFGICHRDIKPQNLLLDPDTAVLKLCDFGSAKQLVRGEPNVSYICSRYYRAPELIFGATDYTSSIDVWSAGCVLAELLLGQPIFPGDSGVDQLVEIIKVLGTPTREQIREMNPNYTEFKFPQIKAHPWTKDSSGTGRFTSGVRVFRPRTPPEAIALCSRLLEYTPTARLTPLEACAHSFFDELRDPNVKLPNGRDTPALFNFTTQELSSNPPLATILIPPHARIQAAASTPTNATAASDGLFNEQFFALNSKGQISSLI
Drosophila Aurora A, sequence (Q9VGF9 entry or part of it): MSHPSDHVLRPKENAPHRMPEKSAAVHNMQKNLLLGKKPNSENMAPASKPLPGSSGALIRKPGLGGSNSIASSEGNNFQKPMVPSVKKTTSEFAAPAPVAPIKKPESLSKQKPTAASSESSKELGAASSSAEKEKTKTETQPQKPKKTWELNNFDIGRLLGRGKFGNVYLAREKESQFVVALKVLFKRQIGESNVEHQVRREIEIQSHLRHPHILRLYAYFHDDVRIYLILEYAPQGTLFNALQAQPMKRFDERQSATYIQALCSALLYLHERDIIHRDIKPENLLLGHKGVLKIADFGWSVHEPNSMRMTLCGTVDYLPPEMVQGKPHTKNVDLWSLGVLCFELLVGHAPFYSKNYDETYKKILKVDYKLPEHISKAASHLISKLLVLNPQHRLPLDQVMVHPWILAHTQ

| IC50 (Drosophila Aurora A) [nM] | IC50 (GSK-3β) [nM] | SMILES |
| --- | --- | --- |
| 274 | 2100 | O=[N+]([O-])c1cccc(Nc2nccc(-c3c[nH]c4ccccc34)n2)c1 [Compound 2, [4-(1H-Indol-3-yl)-pyrimidin-2-yl]-(3-nitro-phenyl)-amine] |
| 1050 | 8700 | Fc1ccc(Nc2nccc(-c3c[nH]c4ccccc34)n2)cc1 [Compound 3, (4-Fluoro-phenyl)-[4-(1H-indol-3-yl)-pyrimidin-2-yl]-amine] |
| 243 | 1600 | COc1ccc(Nc2nccc(-c3c[nH]c4ccccc34)n2)cn1 [Compound 4, [4-(1H-Indol-3-yl)-pyrimidin-2-yl]-(6-methoxy-pyridin-3-yl)-amine] |
